Common to all, as to assay type: physicochemical
A short description of series [1]: Percent transmission of clear coats on fused quartz plates (UV-vis). As to conditions: clear coat, 2.0 mils dry film on fused quartz; 2.5 weight percent UVA actives where present; with HALS 2. Here is the method: Example 29. Percent Transmission Data of the Inventive Clear Coats—Clear coats were prepared of Instant Example 23 and were applied to fused quartz plates at a dry film thickness of 2.0 mils. The absorbance at various wavelengths was measured using a UV-vis spectrophotometer and the absorbance readings were converted to percent transmission (% T) at various wavelengths. In formulations where the UV absorber (UVA) was present, the concentration was 2.5 weight percent UVA actives relative to total resin solids

A short description of series [2]: Multilayered coated panels, accelerated weathering: color change (ΔE). The following applies: after 6000 hours Xenon Arc accelerated weathering (SAE J2527); UV absorber 2.5 wt % in 2-part polyurethane clear top coat on white base coat. The protocol:
(§1) Example 10. Stabilized 2-Part Solvent-borne Polyurethane Glossy Clear Top Coat. A glossy stabilized clear top coat was prepared of the formulation below. The UV absorbers were added to the formulation at 2.5 wt % relative to total resin solids.
(§2) Example 11. Stabilized 2-Part Solvent-borne Polyurethane Glossy Clear Top Coat. A glossy stabilized clear top coat was prepared of the formulation below. The UV absorber was added at 2.5 wt % relative to total resin solids, and the hindered amine light stabilizer (HALS) was added at 1.5 wt % relative to total resin solids. The HALS was a mixture of bis (1,2,2,6,6-pentamethyl-4-piperidyl) sebacate and methyl-1,2,2,6,6-pentamethyl-4-piperidyl sebacate (“HALS 1”); bis(1-octyloxy-2,2,6,6-tetramethylpiperidin-4-yl) sebacate (“HALS 2”); or 2,4-bis[(1-cyclohexyloxy-2,2,6,6-tetramethylpiperidin-4-yl)butylamino]-6-(2-hydroxyethylamino-s-triazine (“HALS 3”).
Example 12. Multilayered Coated Panel Preparation. Aluminum test panels from ACT Test Panels LLC were purchased having a white base coat (coil coat) and no clear top coat. The panels were cut to a size of about 3 inches by 6 inches. The stabilized top coats of Examples 10 and 11 were applied to the painted test panels using draw down bars to obtain clear coat thicknesses of either 2 mils or 3 mils, wherein 1 mil is equal to 0.0254 mm or 25.4 microns. The panels were allowed to air dry for 2 days followed by oven curing at 60° C. for 60 minutes. Initial CIE Lab color values, 20 degree gloss, and 60 degree gloss were measured.
Example 14. Multilayered Coated Panels, Accelerated Weathering. […]
Initial color measurements were taken using the above parameters. The L, a, and b values were calculated using the CIE system from the reflectance values. ΔE was calculated from the L, a, and b values. Subsequent measurements were taken at specified intervals. ΔL, a, and b values were the difference between the initial values and the values at each interval. ΔE was calculated as follows: [(ΔL)^2+(Δa)^2+(Δb)^2][…]=ΔE. […]

Series [3] is described as follows: UV absorber solubility in UV curable coating composition (Example 8). The following applies: approximate maximum concentration with no sign of crystallization; coating similar to Pourreau, RadTech Report 2004, Table 5. Here is the method:
Example 8. UV Absorber Solubility in UV Curable Coating Compositions. To measure this solubility, a number of structurally different UV absorbers were added to a typical UV curable coating composition similar to that as described by D. B. Pourreau “UV-Curable Acrylic Urethane Clearcoats for Automotive Applications,” RadTech Report, November/December, 2004, Table 5, p. 66. The test UV absorber was added to the UV curable coating composition at various concentrations. The resulting solution was placed into individual containers and sealed. Solubility was then evaluated based upon observed crystallization in the solvent. Observations started after several hours and then continued over a period of several weeks.
The solubility values given in Table 1, below, are approximate maximum concentrations where no sign of subsequent crystallization was evident. Solubilities are reported in weight percent of total UV absorber added to UV curable coating formulation. From the data in Table 1, it is clear that the inventive triazine UV absorbers are considerably more soluble in UV curable coating formulations than other triazine UV absorbers of the prior art. The use of many UV absorbers in coatings has been limited by solubility and compatibility of some UV absorber compounds. […]

The nature of series [4]: Multilayered coated panels, accelerated weathering: 20 degree gloss retention. The following applies: after 3536 hours Xenon Arc accelerated weathering (SAE J2527); UV absorber 2.5 wt % in 2-part polyurethane clear top coat on white base coat. Here is the method: as §1, §2
Example 12. Multilayered Coated Panel Preparation. Aluminum test panels from ACT Test Panels LLC were purchased having a white base coat (coil coat) and no clear top coat. The panels were cut to a size of about 3 inches by 6 inches. […] Initial CIE Lab color values, 20 degree gloss, and 60 degree gloss were measured. […]

Series [5] is described as follows: UV absorber solubility in UV curable coating composition (Example 9). The following applies: approximate maximum concentration with no sign of crystallization; coating similar to Pourreau, RadTech Report 2004, Table 6. The protocol:
Example 9. UV Absorber Solubility in UV Curable Coating Compositions. To measure this solubility, a number of structurally different UV absorbers were added to a typical UV curable coating composition similar to that as described by D. B. Pourreau “UV-Curable Acrylic Urethane Clearcoats for Automotive Applications,” RadTech Report, November/December, 2004, Table 6, p. 68. The test UV absorber was added to the UV curable coating composition at various concentrations. The resulting solution was placed into individual containers and sealed. Solubility was then evaluated based upon observed crystallization in the solvent. Observations were initiated after several hours and continued over a period of several weeks.
The solubility values given in Table 2, below, are approximate maximum concentrations where no sign of subsequent crystallization is evident. Solubilities are reported in weight percent of total UV absorber added to UV curable coating formulation. From the data, it is clear that the instant triazine UV absorbers are considerably more soluble in UV curable coating formulations compared to other, triazine UV absorbers. The use of many UV absorbers in coatings has been limited in the past by the limited solubility and compatibility of some UV absorber compounds.

For the compound “2-[4,6-bis(2,4-dimethylphenyl)-1,3,5-triazin-2-yl]-5-[2-hydroxy-3-(2-methylbutoxy)propoxy]phenol and regioisomer [Example 3, reference compound]”, in series [1], the “% T at 325 nm” value is given as 0.04%, the “% T at 350 nm” value stood at 0.10% and the “% T at 375 nm” value is recorded as 36.79%.

As for `CC(C)CCCC(C)OC(=O)C(C)Oc1ccc(-c2nc(-c3ccc(-c4ccccc4)cc3)nc(-c3ccc(-c4ccccc4)cc3)n2)c(O)c1` (centres unmarked) [Example 4, 2-Isooctyl 2-[4-[4,6-bis(4-phenylphenyl)-1,3,5-triazin-2-yl]-3-hydroxy-phenoxy]propanoate], the “Delta E” value in series [2] is recorded as 3.78. Further, the “Solubility in UV Curable Coating” value in series [3] is reported as about 0 wt %. In series [4], the “20 degree gloss retention” value amounted to 78.8%.

As for `CCCCC(CC)COc1ccc(-c2nc(-c3ccc(-c4ccccc4)cc3)nc(-c3ccc(-c4ccccc4)cc3)n2)c(O)c1` (centres unmarked) [Example 5, 2-[4,6-Bis(4-phenylphenyl)-1,3,5-triazin-2-yl]-5-(2-ethylhexoxy)phenol, reference compound], the “Delta E” value in series [2] turned out to be 2.79. Moreover, the “Solubility in UV Curable Coating” value in series [5] was about 2.4 wt %.

`CC(C)(C)CCCCCC(=O)OCC(COc1ccc(-c2nc(-c3ccc(-c4ccccc4)cc3)nc(-c3ccc(-c4ccccc4)cc3)n2)c(O)c1)OC(=O)NCCCCCNC(=O)N(CCCCCCN=C=O)C(=O)NCCCCCCN=C=O` (centres unmarked) [Example 16, [3-[4-[4,6-bis(4-phenylphenyl)-1,3,5-triazin-2-yl]-3-hydroxy-phenoxy]-2-[5-[[6-isocyanatohexyl(6-isocyanatohexylcarbamoyl)carbamoyl]amino]pentyl-carbamoyloxy]propyl] neodecanoate]: in series [1], the “% T at 325 nm” value amounted to 0.03%, the “% T at 350 nm” value came to 0.11% and the “% T at 375 nm” value is listed as 33.86%.

Consider `CC(C)(C)CCCCCC(=O)OCC(COc1ccc(-c2nc(-c3ccc(-c4ccccc4)cc3)nc(-c3ccc(-c4ccccc4)cc3)n2)c(O)c1)OC(=O)NCCCCCCNC(=O)N(CCCCCCN=C=O)C(=O)NCCCCCCNC(=O)OC(COC(=O)CCCCCC(C)(C)C)COc1ccc(-c2nc(-c3ccc(-c4ccccc4)cc3)nc(-c3ccc(-c4ccccc4)cc3)n2)c(O)c1` (centres unmarked) [Example 17, [3-[4-[4,6-bis(4-phenylphenyl)-1,3,5-triazin-2-yl]-3-hydroxy-phenoxy]-2-[6-[[6-[[1-[[4-[4,6-bis(4-phenylphenyl)-1,3,5-triazin-2-yl]-3-hydroxy-phenoxy]methyl]-2-(neodecanoyl)oxy-ethoxy]carbonylamino]hexylcarbamoyl-(6-isocyanatohexyl)-carbamoyl]amino]hexylcarbamoyloxy]propyl] neodecanoate], for which, in series [1], the “% T at 325 nm” value is listed as 0.02%, the “% T at 350 nm” value stood at 0.09% and the “% T at 375 nm” value is recorded as 25.29%.

For the compound `CC(C)(C)CCCCCC(=O)OCC(COc1ccc(-c2nc(-c3ccc(-c4ccccc4)cc3)nc(-c3ccc(-c4ccccc4)cc3)n2)c(O)c1)OC(=O)NCCCCCCn1c(=O)n(CCCCCCN=C=O)c(=O)n(CCCCCCN=C=O)c1=O` (centres unmarked) [Example 18, [2-[6-[3,5-bis(6-isocyanatohexyl)-2,4,6-trioxo-1,3,5-triazinan-1-yl]hexylcarbamoyloxy]-3-[4-[4,6-bis(4-phenylphenyl)-1,3,5-triazin-2-yl]-3-hydroxy-phenoxy]propyl] neodecanoate], in series [1], the “% T at 325 nm” value came to 0.02%, the “% T at 350 nm” value is reported as 0.13% and the “% T at 375 nm” value was determined as 31.98%.

Consider `CCCCCC(CC)OC(=O)N(CCCCCCN=C=O)C(=O)NCCCCCCNC(=O)OC(COC(=O)CCCCCC(C)(C)C)COc1ccc(-c2nc(-c3ccc(-c4ccccc4)cc3)nc(-c3ccc(-c4ccccc4)cc3)n2)c(O)c1` (centres unmarked) [Example 19, [3-[4-[4,6-bis(4-phenylphenyl)-1,3,5-triazin-2-yl]-3-hydroxy-phenoxy]-2-[6-[[1-ethylhexoxycarbonyl(6-isocyanatohexyl)carbamoyl]amino]hexylcarbamoyloxy]propyl] neodecanoate], for which, in series [1], the “% T at 325 nm” value is given as 0.02%, the “% T at 350 nm” value was found to be 0.10% and the “% T at 375 nm” value turned out to be 27.18%.

Regarding `CCCCCCCCON1C(C)(C)CC(OC(=O)CCCCCCCCC(=O)OC2CC(C)(C)N(OCCCCCCCC)C(C)(C)C2)CC1(C)C` [HALS 2, bis(1-octyloxy-2,2,6,6-tetramethylpiperidin-4-yl) sebacate, reference compound], in series [1], the “% T at 325 nm” value is reported as 84.39%, the “% T at 350 nm” value is 92.31% and the “% T at 375 nm” value is 93.38%.

For “[3-[4-[4,6-bis(4-phenylphenyl)-1,3,5-triazin-2-yl]-3-hydroxy-phenoxy]-2-hydroxy-propyl] neo-decanoate (“UVA-3”) and [2-[4-[4,6-bis(4-phenylphenyl)-1,3,5-triazin-2-yl]-3-hydroxy-phenoxy]-3-hydroxy-propyl] neo-decanoate (“UVA-4”) [Example 2]”, in series [2], the “Delta E” value is listed as 1.89. The “Solubility in UV Curable Coating” value is reported as about 6.4 wt % in series [3] and about 26 wt % in series [5].

The values above are taken from patent US12686788B2, “Coating compositions having covalently bound ultraviolet absorbers” (BASF SE, priority 2017, dated 2026).
